# Experimental data: US20200000793A1, “TOPICAL FORMULATIONS OF TARGETED NITROXIDE AGENTS” (University of Pittsburgh - Of the Commonwealth System of …, priority 2011, published 2020)
# Assays:
# [1] = test system: oxidative stress induced skin damage; experiment: Mice irradiated with 35 GY, JP4-039 at 0.5, 24 and 48 hours: barrier function (TEWL), fibrosis, thickening; assay type: in vivo
# Method: Clinically relevant disruption of skin barrier function results in increased water loss from the skin surface. This can be measured non-invasively by the Transepidermal Water Loss (TEWL) assay. Increasing TEWL values directly correlate with damage to the skin's barrier function.
# Groups of mice were irradiated with 35 GY to induce oxidative stress and then treated with JP4-039 or formulation alone 0.5, 24 and 48 hours after exposure. Skin was evaluated 21 days after initial treatment. Damage to skin barrier function was determined by TEWL. Results are reported as % recovery from 35 GY damage defined as (((radiated average−test sample value+0 GY average)/(treated average)*100) (FIG. 18a).
# Fibrosis was evaluated histologically by evaluating the extent of collagen infiltration in the skin sections in (FIG. 18b) (100×). Dermal thickness is indicated by the arrows and collagen fibers were identified by Masson's Trichrome staining (blue). Representative H&E stained sections are provided in (FIG. 18c) with arrows showing epidermal thickness (200×). Dermal (FIG. 18d 100×) and epidermal (FIG. 18e) thickness (200×) was quantified at 5 sites within 4 representative histologic images for each mouse using NIH Image J Software. Statistical significance was determined by ANOVA followed by a Bonferroni post test set at p<0.05.
# [2] = test system: irradiation induced skin damage; experiment: Mouse leg skin irradiated with 6 MeV electron beam, topical F14 emulsion after irradiation: skin damage; assay type: in vivo, C57BL/6NHsd mice
# Method: Mouse flank was shaved and depilated 24 hrs. prior to irradiation with 35 GY using a 6 MeV electron beam.
# JP4-039 was topically applied in a liposome formulation (F14-JP4-039 Emulsion: JP4-039 (2 mg/ml) was emulsified in sesame seed oil (100 mg/ml), and soy phosphatidyl choline (50 mg/ml) by sonication) 30 minutes after irradiation and daily for the next 3 days. Mice were photographed and skin damage scored by clinical criteria. Leg contracture was measured by comparing maximal extension between control and irradiated legs. Histological characterization of cellular infiltrates and collagen levels was performed.
# JP4-039 was topically applied in a the above-described liposome formulation 30 minutes after irradiation. Skin samples taken at 4 hours. Analyzed for apoptosis via caspase 3 and TUNEL. Antioxidant functions evaluated by changes in GSH levels. All quantitative data presented as means±sem and significance determined by ANOVA followed by a Bonferoni post test set at p<0.05.
# Materials/Methods: The right legs of C57BL/6NHsd mice were shaved and treated with Nair to remove the fur. Twenty four hours later the right legs were irradiated to doses of 30 or 35 Gy using 6 MeV electron beam, bolused to bring the surface dose to 100%. At 30 minutes after irradiation, 24, 48 and 72 hours, F14 emulsion only or F14-JP4-039 (100 μg in 50 μl) was applied to the skin. Photos were taken for visual evidence of skin damage and leg contracture was measured as a functional evaluation of tissue damage. Histological characterization of skin thickening, cellular infiltrates and collagen evaluation was also performed. To evaluate the mechanism of radiation damage mitigation, skin samples were assayed at 4 hours after irradiation for markers of apoptosis and oxidative stress. Results: Skin damage was scored on day 21 after irradiation. […] Assessment of Irradiation Damage: Skin damage was measured using visual evidence seen from photographs of the skin and measuring leg contracture. […]
# [3] = In vivo topical delivery in lipid-based formulation, amount retained in tape-stripped skin; settings: 2 mg/ml in saline with surfactants and egg PC, liposome size 200 nm; tape-stripped skin of topically treated mice
# Method: For these studies, 2 mg/ml JP4-039 was formulated in saline with a mixture of surfactants with egg PC by sonication to a liposome size of 200 nm. Harvested, tape-stripped (to remove superficial drug) skin from topically treated mice was processed as described above to determine the amount of JP4-039 retained in the skin. We found cutaneous retention to be in the range of 11.7+/−3.1 pmole/mg, a level compatible with therapeutic efficacy.
# human skin = experiment: Living human skin samples, 60 GY irradiation followed by topical JP4-039: oxidative skin damage
# Method: Oxidative skin damage directly correlates with epidermal thickening, an increase in apoptotic (dying) cells (measured by TUNEL and Caspase release) and an increase in 8-oxoguanine positive cells. Further, oxidative damage is a result of free radical formation that correlates with increases in carbonylated proteins and reduced levels of GSH. […] Living human skin samples were divided and groups of skin samples were treated with either 60 GY irradiation (60 GY), 60 GY followed by topical JP4-039(60 GY+JP4-039), 60 GY followed by formulation without JP4-039(60 GY+Formulation), or were cultured without irradiation (0 GY CONTROL). Photographs in FIG. 10 a) are representative H&E sections (400×). […] In FIG. 10 c) sections were stained with antibody against 8-oxoguanine followed by DAB and counterstained with hemotoxalin. Positive cells have brown nuclei (400×). Epidermal thickness FIG. 10 (d) was determined by photographing 5 consecutive H&E sections (400×) and measuring the length of the epidermis at 5 sites within each photograph. The percentage of TUNEL positive cells FIG. 10 (e) and 8 oxoguanine positive cells FIG. 10 (f) was determined by counting all epidermal cells (positive and negative) in five consecutive 400× sections beginning with the site of maximal apoptosis. Carbonyl Protein FIG. 10 (g), Caspase 3/8 FIG. 10 (h) and GSH FIG. 10 (i) levels were determined in skin homogenates and were normalized by mg protein. Carbonyl protein samples were performed in triplicate from pooled homogenates. All graphical data were converted to % increase from control and are presented as mean+sem. Statistical significance was determined by ANOVA followed by a Bonferroni post test with significance set at p<0.05.
# [4] = F14 emulsion applied at 30 min after irradiation
# [5] = living human skin explants, topical
smiles,measurement,setting,value
"CC(C)C[C@@H](/C=C/CC(=O)NC1CC(C)(C)N([O])C(C)(C)C1)NC(=O)OC(C)(C)C [JP4-039, (S,E)-5-(tert-Butoxycarbonylamino)-7-methyloct-3-enoic Acid-TEMPO]","fibrosis associated changes (epidermal and dermal thickening, collagen deposition)",[1]; day 21,prevents/mitigates
same,radiation induced TEWL increases,"[1]; day 21, p=0.011",significantly reversed
same,caspase 3 activity,[2]; [4],decreased
same,thickening of the skin,[2]; [4],decreased
same,antioxidant function in the skin,"[2]; topical 30 minutes after 35 GY, skin taken at 4 hours, GSH levels",potent antioxidant function
same,cutaneous retention,[3],11.7 ± 3.1 pmol/mg
same,depletion of the antioxidant GSH,human skin; [5],decreasing
same,epidermal thickening associated with oxidative skin damage,human skin; [5],reduction
same,formation of protein carbonyls,human skin; [5],reduction
same,radiation induced cellular apoptosis,human skin; [5],reduction
same,oxidative damage of human skin,"human skin; living human skin samples, 60 GY followed by topical JP4-039",protects human skin from oxidative damage
